Like-named read-outs stand apart in the source and are kept apart here.
Experiments:
[1] = test system: dopamine metabolism in striatum; assay: Influence on dopamine metabolism; format: in vivo, rat
Procedure: Influence on dopamine metabolism
Male OFA rats (150-200 g) were used both for acute and subchronic experiments. The animals are maintained under 12 hour periods of light and dark. The animals are sacrificed always between 11.00 and 13.00 h. The brains are excised immediately, dissected on ice according to the method of GLOWINSKI and IVERSEN, J. Neurochem. 13, 655 (1966), frozen on dry ice and the tissue samples stored at -80° C. until analysis.
Dopamine and its metabolites DOPAC (3,4-dihydroxyphenylacetic acid) and HVA (homovanillic acid) are determined in brain tissue extracts which are obtained by homogenisation of the stored brain tissue samples in 0.1N HCl containing 0.05 mM ascorbic acid and subsequent centrifugation. Striatal and cortical tissues are used.
The determination of the metabolites is performed using either the gas chromatography/mass fragmentography (GCMS) technique as described by KAROUM et al., J. Neurochem. 25, 653 (1975) and CATABENI et al., Science 178, 166 (1972) or the fluorometric method as described by […] and MAITRE, Analyt. Biochem. 51, 474 (1973). For the GCMS method, tissue extracts are prepared by adding known amounts of deuterated monoamines and their respective metabolites as internal standards.

[2] = test system: deoxyglucose (DOG) utilisation in the brain; assay: Muscarinic and nicotinic effects on brain glucose utilisation (deoxyglucose autoradiography); format: in vivo, rat; conditions: 7.5 μmol/kg p.o.
Excerpt: Muscarinic and nicotinic effects on brain glucose utilisation
Changes in the functional activity of the CNS are associated with altered deoxyglucose (DOG) utilisation in the brain which can be visualised simultaneously in several brain regions using the autoradiographic method of Sokoloff et al., J. Neurochem. 28, 897 (1977). The administration of cholinergic drugs either direct (muscarinic agonists) or indirect (accumulation of acetylcholine) induces in this model a characteristic "fingerprint" pattern by modifying the regional glucose metabolism.
Male Wistar rats (150-200 g) are used. Drugs are administered at various doses and by different routes (i.v., p.o., i.p.) to animals. [14C]-2-deoxyglucose (125 μC/kg) is injected 45 min. before the animals are sacrificed. The brains are immediately excised, frozen at -80° C. and subsequently cut in slices with a thickness of 20 μm. The optical densities of the radiographic images are measured according to a modification of Sokoloff et al.

AChE [3] = target: T1, AChE (Rattus norvegicus, UniProt P37136); format: in vivo; set-up: from tissue; host or cells: male OFA rats: cortex, hippocampus, striatum, pons/medulla, heart, blood; conditions: Transdermal 30 μmol/kg
Procedure: (§1) The AChE activity is measured according to the method described by Ellman (Arch. Biochem. Biophys. 82, 70, 1959). Rat brain tissue is homogenized in cold phosphate buffer pH 7.3 (0.25 mM) containing 0.1% of Triton X-100. After centrifugation aliquots of the clear supernatant is used as enzyme source. The enzyme is preincubated with different concentrations of the inhibitor. After different times, substrate (acetylthiocholinjodide 0.5 mM) is added and the remaining activity determined.
The compounds are dissolved in or diluted with n-heptane to a concentration of 1 or 3 mg/20 μl. […] The application place is immediately covered using a thin plastic film and a plaster. The animal has no access to the plaster. Various times after the administration the animals are killed by decapitation and the remaining AChE activity is measured.

AChE [4] = target: T1, AChE; assay: in vivo; set-up: Rat brain tissue is homogenized in cold phosphate buffer pH 7.3; from tissue; host or cells: rat brain (cortex, hippocampus, striatum), supernatant of Triton X-100 homogenate; conditions: for ED50: rat, po, 0.5 h
Procedure: as §1
Acetylcholinesterase inhibition ex vivo in different rat brain regions
The method is as disclosed above.

[5] = six hours after 10 μmol/kg p.o.

T1 sequence (P37136 32-614): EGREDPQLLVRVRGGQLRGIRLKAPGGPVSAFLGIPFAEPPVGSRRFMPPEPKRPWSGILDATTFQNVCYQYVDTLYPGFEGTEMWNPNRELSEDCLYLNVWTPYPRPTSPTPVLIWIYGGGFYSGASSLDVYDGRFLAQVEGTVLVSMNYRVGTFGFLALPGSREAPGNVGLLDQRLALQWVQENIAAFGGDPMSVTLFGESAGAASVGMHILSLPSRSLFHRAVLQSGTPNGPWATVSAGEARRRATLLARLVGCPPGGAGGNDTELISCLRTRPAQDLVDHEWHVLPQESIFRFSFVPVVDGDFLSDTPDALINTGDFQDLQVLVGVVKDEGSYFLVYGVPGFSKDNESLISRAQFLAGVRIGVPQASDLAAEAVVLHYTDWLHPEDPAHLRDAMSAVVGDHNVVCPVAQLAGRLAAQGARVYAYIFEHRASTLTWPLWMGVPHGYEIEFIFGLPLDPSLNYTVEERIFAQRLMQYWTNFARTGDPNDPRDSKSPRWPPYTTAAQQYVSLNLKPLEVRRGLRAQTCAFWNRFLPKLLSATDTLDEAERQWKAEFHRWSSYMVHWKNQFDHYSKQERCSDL

Question: Which results are given for `CCN(C)C(=O)Oc1cccc([C@H](C)N(C)C)c1` [Compound A, (S)-N-ethyl-3-[(1-dimethylamino)ethyl]-N-methyl-phenyl-carbamate]?
Answer: dopamine metabolism in striatum ([1]; following administration): increased; enhancing the striatal dopamine metabolite concentration, comparison ([1]; rat, in vivo): more active than compound B and racemate C; changes in DOG utilisation in various rat brain regions [2]: significant changes in DOG utilisation; AChE activity in % of controls ± SD, Blood (AChE [3]; 0.5 hours after treatment): 71.3 ± 12.3 % of controls; AChE activity in % of controls ± SD, Cortex (AChE [3]; 6 hours after treatment): 42.4 ± 11.7 % of controls; AChE activity in % of controls ± SD, Striatum (AChE [3]; 6 hours after treatment): 65.9 ± 15.5 % of controls; AChE activity in % of controls ± SD, Blood (AChE [3]; 24 hours after treatment): 78.1 ± 17.8 % of controls; ED50 (AChE [4]; read-out: IC50 ex vivo AChE, cortex): 2 µmol/kg; ED50 (AChE [4]; read-out: IC50 ex vivo AChE, hippocampus): 4 µmol/kg; ED50 (AChE [4]; read-out: IC50 ex vivo AChE, striatum): 7 µmol/kg; AChE inhibition ex vivo, cortex (AChE [4]; [5]): 39%; AChE inhibition ex vivo, hippocampus (AChE [4]; [5]): 44%; AChE inhibition ex vivo, striatum (AChE [4]; [5]): 16%
